Experimental data published in US11202766B1, “Pharmaceutical compositions including hydrocodone bitartrate and guaifenesin” (priority 2019, dated 2021).

Assay: clinical
Settings: for Tmax / half-life: Mean; for Kel of Hydrocodone bitartrate, Mean: oral; for half-life: t1/2 of Hydrocodone bitartrate
Method: A randomized, open-label, balanced, two-treatment, two-period, two sequence, single-dose, two-way crossover oral food effect study was conducted comparing administration of rapidly dissolving pharmaceutical composition tablets including 5 mg hydrocodone bitartrate and 400 mg guaifenesin per tablet to healthy subjects under fed and fasting conditions. The objective of this study was to evaluate the effect of food (high fat, high calorie breakfast) on the rate and extent of absorption of a single oral dose of the rapidly dissolving pharmaceutical composition including 5 mg hydrocodone bitartrate and 400 mg guaifenesin.
Healthy adult participants were randomized into Treatment A or Treatment B during two study periods (Period 1 and Period 2). Participants received one tablet of the rapidly dissolving pharmaceutical composition (including 5 mg hydrocodone bitartrate and 400 mg guaifenesin per tablet) in each study period with a seven-day (washout) interval between study periods. Participants randomized to Treatment A consumed a high fat, high calorie breakfast (1000 kcal) 30 minutes prior to dosing. Participants randomized to Treatment B fasted overnight and at the time of dosing. Participants were housed at the investigative site not less than 10.5 hours pre-dose until 24 hours post-dose in each period.
Twenty-one blood samples were collected from each subject during each study period. The venous blood samples (9 mL each) were drawn at pre-dose [(0.00) within 1.00 hour prior to dosing] and at 0.16, 0.33, 0.50, 0.66, 0.83, 1.00, 1.25, 1.50, 2.00, 3.00, 4.00, 5.00, 6.00, 7.00, 8.00, 10.00, 12.00, 16.00, 20.00 and 24.00 hours post-dose. After the collection of blood samples from all the subjects at each time point, samples were centrifuged at 4000 RPM for 10 minutes at 5° C. All plasma samples were then transferred into three polypropylene tubes. The plasma samples were stored at −20±10° C. for a maximum period of 12.0 hours.
Pharmacokinetic parameters were measured for fed and fasting conditions of subjects for both hydrocodone bitartrate and guaifenesin. Plasma samples were assayed for hydrocodone and guaifenesin using an API 4000® LC-MS/MS System, commercially available from AB Sciex LP, Concord, Ontario, Canada. During analysis, standard and quality control samples were distributed throughout each batch of study samples analyzed. No access to the randomization schedule was available until all of the analysis was completed. All the values below the limit of quantification (LOQ) were set to “zero” for all pharmacokinetic and statistical calculations. Any missing sample was reported as “M”. Incurred sample reanalysis was performed as per the current version of ICON SOP BC06, “Incurred Sample Reanalysis Procedures”.
The pharmacokinetic parameters for hydrocodone and guaifenesin in plasma were computed using SAS™ v9.3 software, commercially available from SAS Institute, Inc., Cary, N.C., USA.
The plasma pharmacokinetic parameters were determined for Cmax, Tmax, AUC0→t, and AUC0→∞. The Cmax and Tmax values were directly determined from the plasma concentration versus time curves. The AUC0→t was calculated by the linear trapezoidal rule. The AUC0→∞ was estimated by summing the area from AUC0→t and […]. The half life, t1/2, was calculated using the formula t1/2=ln 2/Kel, wherein Kel is the slope of the terminal portion of the plasma concentration versus time curve, obtained by linear regression. Natural Logarithmic transformation was done before data analysis for Cmax, AUC0→t, and AUC0→∞. Tmax, t1/2, and Kel were analyzed without transformation.
A paired t-test was used to assess effects between the two arms of the study. Intra-subject variability in terms of the overall percentage coefficient of variation (% CV) were also evaluated for each PK parameter. […] All values below the limit of quantification (LOQ) were set to “zero” for all pharmacokinetic and statistical calculations.

[1] = fed:fasting, ln-transformed data

Compound	t1/2 of Guaifenesin, Mean (human, in vivo, po)	Tmax (human, in vivo, po, Tmax of Guaifenesin)	Kel of Hydrocodone bitartrate, Mean (Fasting Condition (Treatment B), one tablet 5 mg hydrocodone bitartrate/400 mg guaifenesin)	Kel of Hydrocodone bitartrate, Mean (Fed Condition (Treatment A), one tablet 5 mg hydrocodone bitartrate/400 mg guaifenesin)	Ratio Between Treatment A: Treatment B, Kel of Hydrocodone Bitartrate, Mean (fed:fasting)	Ratio Between Treatment A: Treatment B, Tmax of Hydrocodone Bitartrate, Mean (fed:fasting)	Ratio Between Treatment A: Treatment B, t1/2 of Hydrocodone Bitartrate, Mean (fed:fasting)	Ratio Between Treatment A: Treatment B, *AUC0→t of Hydrocodone Bitartrate, Mean [1]	Ratio Between Treatment A: Treatment B, *AUC0→∞ of Hydrocodone Bitartrate, Mean [1]	Ratio Between Treatment A: Treatment B, *Cmax of Hydrocodone Bitartrate, Mean [1]	Tmax (human, in vivo, po, Tmax of Hydrocodone bitartrate, Fasting Condition (Treatment B), one tablet 5 mg hydrocodone bitartrate/400 mg guaifenesin)	Tmax (human, in vivo, po, Tmax of Hydrocodone bitartrate, Fed Condition (Treatment A), one tablet 5 mg hydrocodone bitartrate/400 mg guaifenesin)	half-life (human, in vivo, po, Fasting Condition (Treatment B), one tablet 5 mg hydrocodone bitartrate/400 mg guaifenesin)	half-life (human, in vivo, po, Fed Condition (Treatment A), one tablet 5 mg hydrocodone bitartrate/400 mg guaifenesin)
COc1ccccc1OCC(O)CO (centres unmarked) [Guaifenesin, guaifenesin]	1.05 h	0.64 h												
COc1ccc2c3c1O[C@H]1C(=O)CC[C@H]4[C@@H](C2)N(C)CC[C@]314.O=C(O)C(O)C(O)C(=O)O [Hydrocodone bitartrate, hydrocodone bitartrate]			0.14 h⁻¹	0.14 h⁻¹	0.98	1.51	1.11	1.02	1.02	1.03	1.61 h	2.08 h	4.95 h	5.29 h
